# Data: ChEMBL document CHEMBL3885881, “DrugMatrix”
# Species on record: Rattus norvegicus
# Test: DrugMatrix - Regimen: Daily Repeat
# Type: toxicity, organism-based, Sprague-Dawley
# Design: regimen Daily Repeat, gender Male, age 6-8 weeks
# Conditions: in vivo, iv, vehicle 100 % SALINE; for ABSOLUTE BASOPHIL / ABSOLUTE EOSINOPHIL / ABSOLUTE LYMPHOCYTE / ABSOLUTE MONOCYTE / ABSOLUTE SEGMENTED NEUTROPHIL / BASOPHIL / EOSINOPHIL / ERYTHROCYTE COUNT / HEMATOCRIT / HEMOGLOBIN / LEUKOCYTE COUNT / LYMPHOCYTE / MEAN CORPUSCULAR HEMOGLOBIN / MEAN CORPUSCULAR HEMOGLOBIN CONCENTRATION / MEAN CORPUSCULAR VOLUME / MONOCYTE / NEUTROPHIL / NUCLEATED RED BLOOD CELLS / PLATELET COUNT: tissue Blood; for ALANINE AMINOTRANSFERASE / ALBUMIN / ALKALINE PHOSPHATASE / ASPARTATE AMINOTRANSFERASE / BLOOD UREA NITROGEN / CARBON DIOXIDE / CHLORIDE / CHOLESTEROL / CREATINE PHOSPHOKINASE / CREATININE / GLUCOSE / LACTATE DEHYDROGENASE / LIPASE / PHOSPHORUS / POTASSIUM / SODIUM / TOTAL BILIRUBIN / TOTAL PROTEIN / URIC ACID: tissue Plasma
# [1] = 0 mg/kg, 72 h, dose level Control, time 3 day
# [2] = 0 mg/kg, 120 h, dose level Control, time 5 day
# [3] = 0.5 mg/kg, 72 h, dose level Low, time 3 day
smiles,measurement,setting,value
CO[C@@]12[C@H](COC(N)=O)C3=C(C(=O)C(C)=C(N)C3=O)N1C[C@@H]1N[C@@H]12 [MITOMYCIN],ABSOLUTE BASOPHIL,[1],0 CELLS/uL
same,ABSOLUTE EOSINOPHIL,[1],0 CELLS/uL
same,ABSOLUTE LYMPHOCYTE,[1],7026.17 CELLS/uL
same,ABSOLUTE MONOCYTE,[1],44.33 CELLS/uL
same,ABSOLUTE SEGMENTED NEUTROPHIL,[1],379.5 CELLS/uL
same,BASOPHIL,[1],0%
same,EOSINOPHIL,[1],0%
same,ERYTHROCYTE COUNT,[1],5.49 x10E6/uL
same,HEMATOCRIT,[1],33.67%
same,HEMOGLOBIN,[1],13.17 G/DL
same,LEUKOCYTE COUNT,[1],7.45 x10E3/uL
same,LYMPHOCYTE,[1],94%
same,MEAN CORPUSCULAR HEMOGLOBIN,[1],24.03 pg
same,MEAN CORPUSCULAR HEMOGLOBIN CONCENTRATION,[1],39.15 G/DL
same,MEAN CORPUSCULAR VOLUME,[1],61.4 fL
same,MONOCYTE,[1],0.67%
same,NEUTROPHIL,[1],5.33%
same,NUCLEATED RED BLOOD CELLS,[1],0.17 /100WBC
same,PLATELET COUNT,[1],1062.5 x10E3/uL
same,ALANINE AMINOTRANSFERASE,[1],53.17 u/L
same,ALBUMIN,[1],4.33 G/DL
same,ALKALINE PHOSPHATASE,[1],339.83 u/L
same,ASPARTATE AMINOTRANSFERASE,[1],83.33 u/L
same,BLOOD UREA NITROGEN,[1],16 mg/dL
same,CARBON DIOXIDE,[1],32.5 mmol/L
same,CHLORIDE,[1],98 MEQ/L
same,CHOLESTEROL,[1],74.67 mg/dL
same,CREATINE PHOSPHOKINASE,[1],284 u/L
same,CREATININE,[1],0.2 mg/dL
same,GLUCOSE,[1],128.67 mg/dL
same,LACTATE DEHYDROGENASE,[1],110.33 u/L
same,LIPASE,[1],9 u/L
same,PHOSPHORUS,[1],11.73 mg/dL
same,POTASSIUM,[1],6.34 MEQ/L
same,SODIUM,[1],143.12 MEQ/L
same,TOTAL BILIRUBIN,[1],0.18 mg/dL
same,TOTAL PROTEIN,[1],6.2 G/DL
same,URIC ACID,[1],1.28 mg/dL
same,ABSOLUTE BASOPHIL,[2],0 CELLS/uL
same,ABSOLUTE EOSINOPHIL,[2],26.67 CELLS/uL
same,ABSOLUTE LYMPHOCYTE,[2],8334.17 CELLS/uL
same,ABSOLUTE MONOCYTE,[2],29.5 CELLS/uL
same,BASOPHIL,[2],0%
same,EOSINOPHIL,[2],0.33%
same,ERYTHROCYTE COUNT,[2],5.44 x10E6/uL
same,HEMATOCRIT,[2],33.77%
same,HEMOGLOBIN,[2],13.05 G/DL
same,LEUKOCYTE COUNT,[2],8.98 x10E3/uL
same,LYMPHOCYTE,[2],92.33%
same,MEAN CORPUSCULAR HEMOGLOBIN,[2],24 pg
same,MEAN CORPUSCULAR HEMOGLOBIN CONCENTRATION,[2],38.67 G/DL
same,MEAN CORPUSCULAR VOLUME,[2],62.05 fL
same,MONOCYTE,[2],0.33%
same,NEUTROPHIL,[2],7%
same,NUCLEATED RED BLOOD CELLS,[2],0 /100WBC
same,PLATELET COUNT,[2],987 x10E3/uL
same,ALANINE AMINOTRANSFERASE,[2],43.5 u/L
same,ALBUMIN,[2],4.08 G/DL
same,ALKALINE PHOSPHATASE,[2],310.17 u/L
same,ASPARTATE AMINOTRANSFERASE,[2],76.67 u/L
same,BLOOD UREA NITROGEN,[2],17 mg/dL
same,CARBON DIOXIDE,[2],30.67 mmol/L
same,CHLORIDE,[2],100.33 MEQ/L
same,CHOLESTEROL,[2],69.33 mg/dL
same,CREATINE PHOSPHOKINASE,[2],218.67 u/L
same,CREATININE,[2],0.22 mg/dL
same,GLUCOSE,[2],155.17 mg/dL
same,LACTATE DEHYDROGENASE,[2],114.67 u/L
same,LIPASE,[2],10.67 u/L
same,PHOSPHORUS,[2],11.2 mg/dL
same,POTASSIUM,[2],5.5 MEQ/L
same,SODIUM,[2],144.12 MEQ/L
same,TOTAL BILIRUBIN,[2],0.18 mg/dL
same,TOTAL PROTEIN,[2],5.97 G/DL
same,URIC ACID,[2],0.88 mg/dL
same,ABSOLUTE BASOPHIL,[3],0 CELLS/uL
same,ABSOLUTE EOSINOPHIL,[3],0 CELLS/uL
same,ABSOLUTE LYMPHOCYTE,[3],8042 CELLS/uL
same,ABSOLUTE MONOCYTE,[3],56.33 CELLS/uL
same,ABSOLUTE SEGMENTED NEUTROPHIL,[3],601.67 CELLS/uL
same,BASOPHIL,[3],0%
same,EOSINOPHIL,[3],0%
same,ERYTHROCYTE COUNT,[3],5.65 x10E6/uL
same,HEMATOCRIT,[3],34.47%
same,HEMOGLOBIN,[3],13.63 G/DL
same,LEUKOCYTE COUNT,[3],8.7 x10E3/uL
same,LYMPHOCYTE,[3],92.67%
same,MEAN CORPUSCULAR HEMOGLOBIN,[3],24.13 pg
same,MEAN CORPUSCULAR HEMOGLOBIN CONCENTRATION,[3],39.57 G/DL
same,MEAN CORPUSCULAR VOLUME,[3],61.07 fL
same,MONOCYTE,[3],0.67%
same,NEUTROPHIL,[3],6.67%
same,NUCLEATED RED BLOOD CELLS,[3],0 /100WBC
same,PLATELET COUNT,[3],888.67 x10E3/uL
same,ALANINE AMINOTRANSFERASE,[3],51.67 u/L
same,ALBUMIN,[3],4.27 G/DL
same,ALKALINE PHOSPHATASE,[3],324.67 u/L
same,ASPARTATE AMINOTRANSFERASE,[3],87 u/L
same,BLOOD UREA NITROGEN,[3],14.33 mg/dL
same,CARBON DIOXIDE,[3],31 mmol/L
same,CHLORIDE,[3],99 MEQ/L
same,CHOLESTEROL,[3],72 mg/dL
same,CREATINE PHOSPHOKINASE,[3],285 u/L
same,CREATININE,[3],0.26 mg/dL
same,GLUCOSE,[3],136.67 mg/dL
same,LACTATE DEHYDROGENASE,[3],100.67 u/L
same,LIPASE,[3],11.67 u/L
same,PHOSPHORUS,[3],10.87 mg/dL
same,POTASSIUM,[3],5.62 MEQ/L
same,SODIUM,[3],144.1 MEQ/L
same,TOTAL BILIRUBIN,[3],0.1 mg/dL
same,TOTAL PROTEIN,[3],5.9 G/DL
same,URIC ACID,[3],0.63 mg/dL
